Reference: patent US9518018B2, “3-alkoxy, thioalkyl and amino-4-amino-6-(substituted)picolinates and their use as herbicides” (Dow AgroSciences LLC, priority 2011, dated 2016)

Test system: desired test plant species
Assay: Foliar-applied postemergence herbicidal activity in direct seeded rice (Table 6)
Assay type: in vivo
Settings: 21 DAA
Source text: Seeds or nutlets of the desired test plant species were planted in a soil matrix prepared by mixing a loam soil (43 percent silt, 19 percent clay, and 38 percent sand, with a pH of about 8.1 and an organic matter content of about 1.5 percent) and river sand in an 80 to 20 ratio. The soil matrix was contained in plastic pots with a surface area of 139.7 cm^2. When required to ensure good germination and healthy plants, a fungicide treatment and/or other chemical or physical treatment was applied. The plants were grown for 10-17 d in a greenhouse with an approximate 14-h photoperiod which was maintained at about 29° C. during the day and 26° C. during the night. Nutrients and water were added on a regular basis and supplemental lighting was provided with overhead metal halide 1000-Watt lamps as necessary. The plants were employed for testing when they reached the second or third true leaf stage. Treatments consisted of compounds 45, 34, and 66. Weighed amounts of technical compounds were placed in individual 25 mL glass vials and dissolved in 8 mL of 97:3 v/v acetone-DMSO to obtain stock solutions. […] The spray application solutions were prepared by removing 4 mL of the stock solution and diluting with 4 mL of 97:3 v/v acetone-DMSO and continued serial dilution to obtain 1⁄2×, 1⁄4×, 1⁄8×, and 1/16× rates of the high rate. Spray solutions were diluted to the appropriate final concentrations with the addition of 8 mL of an aqueous mixture of 1.875% (v/v) Agri-dex crop oil concentrate. The final 12-mL spray solutions each contained 1.25% (v/v) Agri-dex crop oil concentrate, 32.3% acetone, and 1.0% DMSO. Compound requirements are based upon a 12 mL application volume at a rate of 187 L/ha. Spray solutions were applied to the plant material with an overhead Mandel track sprayer equipped with […] nozzles calibrated to deliver 187 L/ha over an application area of 0.503 square meters (m^2) at a spray height of 18 inches ([…]) above average plant canopy height. Control plants were sprayed in the same manner with the solvent blank. The treated plants and control plants were placed in a greenhouse as described above and watered by sub-irrigation to prevent wash-off of the test compounds. After approximately 3 weeks, the condition of the test plants, compared with that of the untreated plants, was determined visually and scored on a scale of 0 to 100 percent where 0 corresponds to no injury and 100 corresponds to complete kill. By applying the well-accepted probit analysis as described by J. Berkson in Journal of the […], 48, 565 (1953) and by D. Finney in “Probit Analysis” Cambridge University Press (1952) or by plotting the mean data and fitting a logarithmic curve to the portion of the data where there was a dose response using Microsoft Excel®, the above data can be used to calculate GR50 and GR90 values, which are defined as growth reduction factors that correspond to the effective dose of herbicide required to kill or control 50 percent or 90 percent, respectively, of a target plant.

COc1c(C(=O)O)nc(-c2ccc(Cl)c(OC)c2F)c(F)c1N [Compound 45, 4-amino-6-(4-chloro-2-fluoro-3-methoxyphenyl)-5-fluoro-3-methoxypicolinic acid]
Mean Visual Injury (%)-21 Days After Application AESSE (AESSE (Aeschynomene sensitiva, sensitive jointvetch), 4.38 g ae/ha): 100% | Mean Visual Injury (%)-21 Days After Application AESSE (AESSE (Aeschynomene sensitiva, sensitive jointvetch), 8.75 g ae/ha): 100% | Mean Visual Injury (%)-21 Days After Application AESSE (AESSE (Aeschynomene sensitiva, sensitive jointvetch), 17.5 g ae/ha): 100% | Mean Visual Injury (%)-21 Days After Application AESSE (AESSE (Aeschynomene sensitiva, sensitive jointvetch), 35 g ae/ha): 100% | Mean Visual Injury (%)-21 Days After Application AESSE (AESSE (Aeschynomene sensitiva, sensitive jointvetch), 70 g ae/ha): 100% | GR50 AESSE (AESSE (Aeschynomene sensitiva, sensitive jointvetch), dose to kill or control 50 percent): <4.38 g ae/ha | GR90 AESSE (AESSE (Aeschynomene sensitiva, sensitive jointvetch), dose to kill or control 90 percent): <4.38 g ae/ha | Mean Visual Injury (%)-21 Days After Application BRAPP (BRAPP (Brachiaria platyphylla, broadleaf signalgrass), 4.38 g ae/ha): 72% | Mean Visual Injury (%)-21 Days After Application BRAPP (BRAPP (Brachiaria platyphylla, broadleaf signalgrass), 8.75 g ae/ha): 80% | Mean Visual Injury (%)-21 Days After Application BRAPP (BRAPP (Brachiaria platyphylla, broadleaf signalgrass), 17.5 g ae/ha): 95% | Mean Visual Injury (%)-21 Days After Application BRAPP (BRAPP (Brachiaria platyphylla, broadleaf signalgrass), 35 g ae/ha): 95% | Mean Visual Injury (%)-21 Days After Application BRAPP (BRAPP (Brachiaria platyphylla, broadleaf signalgrass), 70 g ae/ha): 98% | GR50 BRAPP (BRAPP (Brachiaria platyphylla, broadleaf signalgrass), dose to kill or control 50 percent): <4.38 g ae/ha | GR90 BRAPP (BRAPP (Brachiaria platyphylla, broadleaf signalgrass), dose to kill or control 90 percent): 22.0 g ae/ha | Mean Visual Injury (%)-21 Days After Application CYPDI (CYPDI (Cyperus difformis, small-flower flatsedge), 4.38 g ae/ha): 75% | Mean Visual Injury (%)-21 Days After Application CYPDI (CYPDI (Cyperus difformis, small-flower flatsedge), 8.75 g ae/ha): 97% | Mean Visual Injury (%)-21 Days After Application CYPDI (CYPDI (Cyperus difformis, small-flower flatsedge), 17.5 g ae/ha): 98% | Mean Visual Injury (%)-21 Days After Application CYPDI (CYPDI (Cyperus difformis, small-flower flatsedge), 35 g ae/ha): 100% | Mean Visual Injury (%)-21 Days After Application CYPDI (CYPDI (Cyperus difformis, small-flower flatsedge), 70 g ae/ha): 100% | GR50 CYPDI (CYPDI (Cyperus difformis, small-flower flatsedge), dose to kill or control 50 percent): <4.38 g ae/ha | GR90 CYPDI (CYPDI (Cyperus difformis, small-flower flatsedge), dose to kill or control 90 percent): 8.8 g ae/ha | Mean Visual Injury (%)-21 Days After Application CYPES (CYPES (Cyperus esculentus, yellow nutsedge), 4.38 g ae/ha): 73% | Mean Visual Injury (%)-21 Days After Application CYPES (CYPES (Cyperus esculentus, yellow nutsedge), 8.75 g ae/ha): 78% | Mean Visual Injury (%)-21 Days After Application CYPES (CYPES (Cyperus esculentus, yellow nutsedge), 17.5 g ae/ha): 85% | Mean Visual Injury (%)-21 Days After Application CYPES (CYPES (Cyperus esculentus, yellow nutsedge), 35 g ae/ha): 99% | Mean Visual Injury (%)-21 Days After Application CYPES (CYPES (Cyperus esculentus, yellow nutsedge), 70 g ae/ha): 95% | GR50 CYPES (CYPES (Cyperus esculentus, yellow nutsedge), dose to kill or control 50 percent): <4.38 g ae/ha | GR90 CYPES (CYPES (Cyperus esculentus, yellow nutsedge), dose to kill or control 90 percent): 27.1 g ae/ha | Mean Visual Injury (%)-21 Days After Application CYPIR (CYPIR (Cyperus iria, rice flatsedge), 4.38 g ae/ha): 95% | Mean Visual Injury (%)-21 Days After Application CYPIR (CYPIR (Cyperus iria, rice flatsedge), 8.75 g ae/ha): 97% | Mean Visual Injury (%)-21 Days After Application CYPIR (CYPIR (Cyperus iria, rice flatsedge), 17.5 g ae/ha): 100% | Mean Visual Injury (%)-21 Days After Application CYPIR (CYPIR (Cyperus iria, rice flatsedge), 35 g ae/ha): 100% | Mean Visual Injury (%)-21 Days After Application CYPIR (CYPIR (Cyperus iria, rice flatsedge), 70 g ae/ha): 100% | GR50 CYPIR (CYPIR (Cyperus iria, rice flatsedge), dose to kill or control 50 percent): <4.38 g ae/ha | GR90 CYPIR (CYPIR (Cyperus iria, rice flatsedge), dose to kill or control 90 percent): <4.38 g ae/ha | Mean Visual Injury (%)-21 Days After Application ECHCG (ECHCG (Echinochloa crus-galli, barnyardgrass), 4.38 g ae/ha): 92% | Mean Visual Injury (%)-21 Days After Application ECHCG (ECHCG (Echinochloa crus-galli, barnyardgrass), 8.75 g ae/ha): 92% | Mean Visual Injury (%)-21 Days After Application ECHCG (ECHCG (Echinochloa crus-galli, barnyardgrass), 17.5 g ae/ha): 95% | Mean Visual Injury (%)-21 Days After Application ECHCG (ECHCG (Echinochloa crus-galli, barnyardgrass), 35 g ae/ha): 98% | Mean Visual Injury (%)-21 Days After Application ECHCG (ECHCG (Echinochloa crus-galli, barnyardgrass), 70 g ae/ha): 100% | GR50 ECHCG (ECHCG (Echinochloa crus-galli, barnyardgrass), dose to kill or control 50 percent): <4.38 g ae/ha | GR90 ECHCG (ECHCG (Echinochloa crus-galli, barnyardgrass), dose to kill or control 90 percent): <4.38 g ae/ha | Mean Visual Injury (%)-21 Days After Application ECHCO (ECHCO (Echinochloa colonum, junglerice), 4.38 g ae/ha): 80% | Mean Visual Injury (%)-21 Days After Application ECHCO (ECHCO (Echinochloa colonum, junglerice), 8.75 g ae/ha): 88% | Mean Visual Injury (%)-21 Days After Application ECHCO (ECHCO (Echinochloa colonum, junglerice), 17.5 g ae/ha): 95% | Mean Visual Injury (%)-21 Days After Application ECHCO (ECHCO (Echinochloa colonum, junglerice), 35 g ae/ha): 98% | Mean Visual Injury (%)-21 Days After Application ECHCO (ECHCO (Echinochloa colonum, junglerice), 70 g ae/ha): 100% | GR50 ECHCO (ECHCO (Echinochloa colonum, junglerice), dose to kill or control 50 percent): <4.38 g ae/ha | GR90 ECHCO (ECHCO (Echinochloa colonum, junglerice), dose to kill or control 90 percent): 12.9 g ae/ha | Mean Visual Injury (%)-21 Days After Application LEFCH (LEFCH (Leptochloa chinensis, Chinese sprangletop), 4.38 g ae/ha): 3% | Mean Visual Injury (%)-21 Days After Application LEFCH (LEFCH (Leptochloa chinensis, Chinese sprangletop), 8.75 g ae/ha): 0% | Mean Visual Injury (%)-21 Days After Application LEFCH (LEFCH (Leptochloa chinensis, Chinese sprangletop), 17.5 g ae/ha): 20% | Mean Visual Injury (%)-21 Days After Application LEFCH (LEFCH (Leptochloa chinensis, Chinese sprangletop), 35 g ae/ha): 42% | Mean Visual Injury (%)-21 Days After Application LEFCH (LEFCH (Leptochloa chinensis, Chinese sprangletop), 70 g ae/ha): 60% | GR50 LEFCH (LEFCH (Leptochloa chinensis, Chinese sprangletop), dose to kill or control 50 percent): 53.5 g ae/ha | GR90 LEFCH (LEFCH (Leptochloa chinensis, Chinese sprangletop), dose to kill or control 90 percent): >70 g ae/ha | Mean Visual Injury (%)-21 Days After Application ORYSA ‘Clearfield 171’ (ORYSA (Oryza sativa ‘Clearfield 171’, rice), 4.38 g ae/ha): 0% | Mean Visual Injury (%)-21 Days After Application ORYSA ‘Clearfield 171’ (ORYSA (Oryza sativa ‘Clearfield 171’, rice), 8.75 g ae/ha): 12% | Mean Visual Injury (%)-21 Days After Application ORYSA ‘Clearfield 171’ (ORYSA (Oryza sativa ‘Clearfield 171’, rice), 17.5 g ae/ha): 15% | Mean Visual Injury (%)-21 Days After Application ORYSA ‘Clearfield 171’ (ORYSA (Oryza sativa ‘Clearfield 171’, rice), 35 g ae/ha): 35% | Mean Visual Injury (%)-21 Days After Application ORYSA ‘Clearfield 171’ (ORYSA (Oryza sativa ‘Clearfield 171’, rice), 70 g ae/ha): 47% | GR50 ORYSA ‘Clearfield 171’ (ORYSA (Oryza sativa ‘Clearfield 171’, rice), dose to kill or control 50 percent): >70 g ae/ha | GR90 ORYSA ‘Clearfield 171’ (ORYSA (Oryza sativa ‘Clearfield 171’, rice), dose to kill or control 90 percent): >70 g ae/ha | Mean Visual Injury (%)-21 Days After Application ORYSA ‘Wells’ (ORYSA (Oryza sativa ‘Wells’, rice), 4.38 g ae/ha): 0% | Mean Visual Injury (%)-21 Days After Application ORYSA ‘Wells’ (ORYSA (Oryza sativa ‘Wells’, rice), 8.75 g ae/ha): 0% | Mean Visual Injury (%)-21 Days After Application ORYSA ‘Wells’ (ORYSA (Oryza sativa ‘Wells’, rice), 17.5 g ae/ha): 0% | Mean Visual Injury (%)-21 Days After Application ORYSA ‘Wells’ (ORYSA (Oryza sativa ‘Wells’, rice), 35 g ae/ha): 10% | Mean Visual Injury (%)-21 Days After Application ORYSA ‘Wells’ (ORYSA (Oryza sativa ‘Wells’, rice), 70 g ae/ha): 23% | GR50 ORYSA ‘Wells’ (ORYSA (Oryza sativa ‘Wells’, rice), dose to kill or control 50 percent): >70 g ae/ha | GR90 ORYSA ‘Wells’ (ORYSA (Oryza sativa ‘Wells’, rice), dose to kill or control 90 percent): >70 g ae/ha | Mean Visual Injury (%)-21 Days After Application SCPJU (SCPJU (Scirpus juncoides, Japanese bulrush), 4.38 g ae/ha): 72% | Mean Visual Injury (%)-21 Days After Application SCPJU (SCPJU (Scirpus juncoides, Japanese bulrush), 8.75 g ae/ha): 100% | Mean Visual Injury (%)-21 Days After Application SCPJU (SCPJU (Scirpus juncoides, Japanese bulrush), 17.5 g ae/ha): 100% | Mean Visual Injury (%)-21 Days After Application SCPJU (SCPJU (Scirpus juncoides, Japanese bulrush), 35 g ae/ha): 100% | Mean Visual Injury (%)-21 Days After Application SCPJU (SCPJU (Scirpus juncoides, Japanese bulrush), 70 g ae/ha): 100% | GR50 SCPJU (SCPJU (Scirpus juncoides, Japanese bulrush), dose to kill or control 50 percent): <4.38 g ae/ha | GR90 SCPJU (SCPJU (Scirpus juncoides, Japanese bulrush), dose to kill or control 90 percent): 6.9 g ae/ha | Mean Visual Injury (%)-21 Days After Application SEBEX (SEBEX (Sesbania exaltata, hemp sesbania), 4.38 g ae/ha): 100% | Mean Visual Injury (%)-21 Days After Application SEBEX (SEBEX (Sesbania exaltata, hemp sesbania), 8.75 g ae/ha): 100% | Mean Visual Injury (%)-21 Days After Application SEBEX (SEBEX (Sesbania exaltata, hemp sesbania), 17.5 g ae/ha): 100% | Mean Visual Injury (%)-21 Days After Application SEBEX (SEBEX (Sesbania exaltata, hemp sesbania), 35 g ae/ha): 100% | Mean Visual Injury (%)-21 Days After Application SEBEX (SEBEX (Sesbania exaltata, hemp sesbania), 70 g ae/ha): 100% | GR50 SEBEX (SEBEX (Sesbania exaltata, hemp sesbania), dose to kill or control 50 percent): <4.38 g ae/ha | GR90 SEBEX (SEBEX (Sesbania exaltata, hemp sesbania), dose to kill or control 90 percent): <4.38 g ae/ha
